Laboratory results from ChEMBL document CHEMBL3352739, “Comparative in vivo evaluation of polyalkoxy substituted 4H-chromenes and oxa-podophyllotoxins as microtubule destabilizing agents in the phenotypic sea urchin embryo assay” (2014).

Tests used:
[1] = system: Paracentrotus lividus; test: Antimitotic microtubule destabilizing activity in Paracentrotus lividus L embryos assessed as induction of embryo spinning
[2] = system: Paracentrotus lividus; test: Antimitotic microtubule destabilizing activity in Paracentrotus lividus L embryos assessed as induction of cleavage arrest
[3] = system: Paracentrotus lividus; test: Antimitotic microtubule destabilizing activity in Paracentrotus lividus L embryos assessed as induction of cleavage alteration
[4] = Cytotoxicity against human NCI60 cells; format: functional
[5] = Growth inhibition of human OVCAR3 cells after 48 hrs by sulforhodamine B assay; format: functional; settings: OVCAR-3, 48 h
[6] = system: HL-60(TB); test: Growth inhibition of human HL-60(TB) cells after 48 hrs by sulforhodamine B assay; format: functional; settings: HL-60, 48 h
[7] = Growth inhibition of human HCT15 cells after 48 hrs by sulforhodamine B assay; format: functional; settings: HCT-15, 48 h
[8] = system: MDA-MB-435; test: Growth inhibition of human MDA-MB-435 cells after 48 hrs by sulforhodamine B assay; format: functional; settings: MDA-MB-435, 48 h
[9] = system: KM12; test: Growth inhibition of human KM12 cells after 48 hrs by sulforhodamine B assay; format: functional; settings: KM12, 48 h
[10] = system: SK-OV-3; test: Growth inhibition of human SKOV3 cells after 48 hrs by sulforhodamine B assay; format: functional; settings: SK-OV-3, 48 h
[11] = Growth inhibition of human OVCAR8 cells after 48 hrs by sulforhodamine B assay; format: functional; settings: OVCAR-8, 48 h
[12] = system: SNB-75; test: Growth inhibition of human SNB75 cells after 48 hrs by sulforhodamine B assay; format: functional; settings: SNB-75, 48 h
[13] = Growth inhibition of human RXF393 cells after 48 hrs by sulforhodamine B assay; format: functional; settings: RXF 393, 48 h
[14] = system: TK-10; test: Growth inhibition of human TK10 cells after 48 hrs by sulforhodamine B assay; format: functional; settings: TK-10, 48 h
[15] = system: HT-29; test: Growth inhibition of human HT-29 cells after 48 hrs by sulforhodamine B assay; format: functional; settings: HT-29, 48 h
[16] = Growth inhibition of human OVCAR5 cells after 48 hrs by sulforhodamine B assay; format: functional; settings: OVCAR-5, 48 h
[17] = system: NCI-H460; test: Growth inhibition of human NCI-H460 cells after 48 hrs by sulforhodamine B assay; format: functional; settings: NCI-H460, 48 h
[18] = system: NCI-H322M; test: Growth inhibition of human NCI-H322M cells after 48 hrs by sulforhodamine B assay; format: functional
[19] = system: SN12C; test: Growth inhibition of human SN12C cells after 48 hrs by sulforhodamine B assay; format: functional
[20] = Growth inhibition of human UO31 cells after 48 hrs by sulforhodamine B assay; format: functional; settings: UO-31, 48 h
[21] = system: SF-268; test: Growth inhibition of human SF268 cells after 48 hrs by sulforhodamine B assay; format: functional; settings: SF-268, 48 h
[22] = Growth inhibition of human SF539 cells after 48 hrs by sulforhodamine B assay; format: functional; settings: SF-539, 48 h
[23] = Growth inhibition of human COLO205 cells after 48 hrs by sulforhodamine B assay; format: functional; settings: COLO 205, 48 h
[24] = system: CAKI-1; test: Growth inhibition of human CAKI-1 cells after 48 hrs by sulforhodamine B assay; format: functional; settings: CAKI-1, 48 h
[25] = Growth inhibition of human MOLT4 cells after 48 hrs by sulforhodamine B assay; format: functional; settings: MOLT-4, 48 h
[26] = system: SNB-19; test: Growth inhibition of human SNB19 cells after 48 hrs by sulforhodamine B assay; format: functional; settings: SNB-19, 48 h
[27] = system: NCI-H23; test: Growth inhibition of human NCI-H23 cells after 48 hrs by sulforhodamine B assay; format: functional; settings: NCI-H23, 48 h
[28] = system: CCRF-CEM; test: Growth inhibition of human CCRF-CEM cells after 48 hrs by sulforhodamine B assay; format: functional
[29] = system: NCI-H522; test: Growth inhibition of human NCI-H522 cells after 48 hrs by sulforhodamine B assay; format: functional; settings: NCI-H522, 48 h
[30] = Growth inhibition of human PC3 cells after 48 hrs by sulforhodamine B assay; format: functional; settings: PC-3, 48 h
[31] = system: T47D; test: Growth inhibition of human T47D cells after 48 hrs by sulforhodamine B assay; format: functional
[32] = system: MDA-MB-468; test: Growth inhibition of human MDA-MB-468 cells after 48 hrs by sulforhodamine B assay; format: functional; settings: MDA-MB-468, 48 h
[33] = Growth inhibition of human BT549 cells after 48 hrs by sulforhodamine B assay; format: functional; settings: BT-549, 48 h
[34] = system: A498; test: Growth inhibition of human A498 cells after 48 hrs by sulforhodamine B assay; format: functional; settings: A498, 48 h
[35] = system: K562; test: Growth inhibition of human K562 cells after 48 hrs by sulforhodamine B assay; format: functional; settings: K562, 48 h
[36] = system: IGROV-1; test: Growth inhibition of human IGROV1 cells after 48 hrs by sulforhodamine B assay; format: functional; settings: IGROV-1, 48 h
[37] = Growth inhibition of human OVCAR4 cells after 48 hrs by sulforhodamine B assay; format: functional; settings: OVCAR-4, 48 h
[38] = system: SR; test: Growth inhibition of human SR cells after 48 hrs by sulforhodamine B assay; format: functional
[39] = Growth inhibition of human HCC2998 cells after 48 hrs by sulforhodamine B assay; format: functional; settings: HCC 2998, 48 h
[40] = system: DU-145; test: Growth inhibition of human DU145 cells after 48 hrs by sulforhodamine B assay; format: functional; settings: DU-145, 48 h
[41] = system: M14; test: Growth inhibition of human M14 cells after 48 hrs by sulforhodamine B assay; format: functional; settings: M14, 48 h
[42] = Growth inhibition of human UACC62 cells after 48 hrs by sulforhodamine B assay; format: functional; settings: UACC-62, 48 h
[43] = system: NCI-H226; test: Growth inhibition of human NCI-H226 cells after 48 hrs by sulforhodamine B assay; format: functional; settings: NCI-H226, 48 h
[44] = Growth inhibition of human Hs 578T cells after 48 hrs by sulforhodamine B assay; format: functional
[45] = Growth inhibition of human HCT116 cells after 48 hrs by sulforhodamine B assay; format: functional; settings: HCT-116, 48 h
[46] = Growth inhibition of human NCI-ADR-RES cells after 48 hrs by sulforhodamine B assay; format: functional
[47] = system: MDA-MB-231; test: Growth inhibition of human MDA-MB-231 cells after 48 hrs by sulforhodamine B assay; format: functional; settings: MDA-MB-231, 48 h
[48] = system: SW-620; test: Growth inhibition of human SW620 cells after 48 hrs by sulforhodamine B assay; format: functional; settings: SW-620, 48 h
[49] = system: ACHN; test: Growth inhibition of human ACHN cells after 48 hrs by sulforhodamine B assay; format: functional
[50] = system: SK-MEL-5; test: Growth inhibition of human SK-MEL-5 cells after 48 hrs by sulforhodamine B assay; format: functional; settings: SK-MEL-5, 48 h
[51] = system: A549; test: Growth inhibition of human A549/ATCC cells after 48 hrs by sulforhodamine B assay; format: functional; settings: A549, 48 h
[52] = Growth inhibition of human RPMI8226 cells after 48 hrs by sulforhodamine B assay; format: functional; settings: RPMI-8226, 48 h
[53] = Growth inhibition of human UACC257 cells after 48 hrs by sulforhodamine B assay; format: functional; settings: UACC-257, 48 h
[54] = Growth inhibition of human H1299 cells after 48 hrs by sulforhodamine B assay; format: functional; settings: NCI-H1299, 48 h
[55] = system: 786-0; test: Growth inhibition of human 786-0 cells after 48 hrs by sulforhodamine B assay; format: functional; settings: 786-0, 48 h
[56] = system: HOP-62; test: Growth inhibition of human HOP62 cells after 48 hrs by sulforhodamine B assay; format: functional; settings: HOP-62, 48 h
[57] = system: MCF7; test: Growth inhibition of human MCF7 cells after 48 hrs by sulforhodamine B assay; format: functional; settings: MCF7, 48 h
[58] = Growth inhibition of human SF295 cells after 48 hrs by sulforhodamine B assay; format: functional; settings: SF-295, 48 h
[59] = Cytotoxicity against human NCI60 cells assessed as mean cell growth at 10 uM; format: functional

COc1cccc(C2C(C#N)=C(N)Oc3cc(O)ccc32)c1OC (stereo not drawn)
EC [1]: > 4 µM | EC [2]: > 4 µM | EC [3]: > 4 µM

COc1ccc2c(c1)OC(N)=C(C#N)[C@@H]2c1cc(OC)c(OC)c(OC)c1
EC [1]: 0.2 µM | EC [2]: 0.04 µM | EC [3]: 0.005 µM

N#CC1=C(N)Oc2cc(O)ccc2C1c1cc2c(c([N+](=O)[O-])c1)OCCO2 (stereo not drawn)
EC [1]: > 4 µM | GI50 [4]: 99300 nM | EC [2]: > 4 µM | EC [3]: 4 µM

COc1ccccc1C1C(C#N)=C(N)Oc2cc(O)ccc21 (stereo not drawn)
EC [1]: > 5 µM | EC [2]: > 4 µM | EC [3]: 0.5 µM

COc1c(C2C(C#N)=C(N)Oc3cc(O)ccc32)cc2c(c1OC)OCO2 (stereo not drawn)
EC [1]: > 4 µM | EC [2]: > 4 µM | EC [3]: 4 µM

COc1ccc(C2C(C#N)=C(N)Oc3cc(O)ccc32)c(OC)c1 (stereo not drawn)
EC [1]: > 4 µM | EC [2]: > 4 µM | EC [3]: > 4 µM

CCOc1ccccc1C1C(C#N)=C(N)Oc2cc(OC)ccc21 (stereo not drawn)
EC [1]: 0.5 µM | EC [2]: 0.2 µM | EC [3]: 0.02 µM

COc1ccc2c(c1)OC(N)=C(C#N)[C@H]2c1cc(OC)c(OC)c(OC)c1
EC [1]: > 5 µM | EC [2]: > 4 µM | EC [3]: 2 µM

COc1ccc2c(c1)OC(N)=C(C#N)C2c1cc(N)c2c(c1)OCCO2 (stereo not drawn)
EC [1]: 5 µM | EC [2]: 0.5 µM | EC [3]: 0.1 µM

COc1cccc(C2C(C#N)=C(N)Oc3cc(OC)ccc32)c1 (stereo not drawn)
GI50 [5]: 27.8 nM | GI50 [6]: 25 nM | GI50 [7]: 36.6 nM | GI50 [8]: < 10 nM | GI50 [9]: 30.3 nM | GI50 [10]: 34 nM | GI50 [11]: 51.4 nM | EC [1]: 0.05 µM | GI50 [12]: 27 nM | GI50 [13]: 26 nM | GI50 [14]: 11800 nM | GI50 [15]: 37 nM | GI50 [16]: 66.2 nM | GI50 [17]: 36.4 nM | GI50 [18]: 63.1 nM | GI50 [19]: 69.3 nM | GI50 [20]: 57.2 nM | GI50 [21]: 73.5 nM | GI50 [22]: 25 nM | GI50 [23]: 45.2 nM | GI50 [24]: 42.6 nM | GI50 [25]: 55.7 nM | GI50 [26]: 3770 nM | GI50 [27]: 40 nM | GI50 [4]: 55 nM | GI50 [28]: 31.2 nM | GI50 [29]: < 10 nM | GI50 [30]: 35.7 nM | GI50 [31]: 43.7 nM | GI50 [32]: 35 nM | GI50 [33]: 87.2 nM | GI50 [34]: 18.6 nM | GI50 [35]: 19.7 nM | GI50 [36]: 48.2 nM | GI50 [37]: 535 nM | GI50 [38]: 20.2 nM | GI50 [39]: 51.5 nM | GI50 [40]: 35.1 nM | GI50 [41]: 26.8 nM | GI50 [42]: 70.5 nM | EC [2]: 0.01 µM | GI50 [43]: 835 nM | GI50 [44]: 28.3 nM | GI50 [45]: 47.9 nM | GI50 [46]: 14.9 nM | GI50 [47]: 54.6 nM | GI50 [48]: 38.1 nM | GI50 [49]: 120 nM | GI50 [50]: 50.3 nM | GI50 [51]: 45.2 nM | GI50 [52]: 37.4 nM | GI50 [53]: 12400 nM | GI50 [54]: 55 nM | GI50 [55]: 50.7 nM | GI50 [56]: 41.6 nM | GI50 [57]: 17.1 nM | EC [3]: 0.002 µM | GI50 [58]: 25.4 nM

COc1cccc([C@H]2C(C#N)=C(N)Oc3cc(OC)ccc32)c1
EC [1]: 0.05 µM | EC [2]: 0.01 µM | EC [3]: 0.001 µM

COc1cc(C2C(C#N)=C(N)Oc3cc(O)ccc32)c(OC)c(OC)c1OC (stereo not drawn)
EC [1]: > 4 µM | EC [2]: > 4 µM | EC [3]: > 4 µM

COc1ccc(C2C(C#N)=C(N)Oc3cc(OC)ccc32)cc1 (stereo not drawn)
EC [1]: > 5 µM | EC [2]: 1 µM | EC [3]: 0.1 µM

COc1ccc2c(c1)OC(N)=C(C#N)C2c1cc2c(c([N+](=O)[O-])c1)OCCO2 (stereo not drawn)
EC [1]: 1 µM | EC [2]: 0.1 µM | EC [3]: 0.02 µM

COc1ccc(C2C(C#N)=C(N)Oc3cc(O)ccc32)cc1 (stereo not drawn)
EC [1]: > 4 µM | Activity [59]: 96% | EC [2]: > 4 µM | EC [3]: > 4 µM

COc1cc(OC)c(C2C(C#N)=C(N)Oc3cc(O)ccc32)c(OC)c1 (stereo not drawn)
EC [1]: > 4 µM | EC [2]: > 4 µM

COc1ccc(OC)c(C2C(C#N)=C(N)Oc3cc(O)ccc32)c1 (stereo not drawn)
EC [1]: > 4 µM | Activity [59]: 94.5% | EC [2]: > 4 µM | EC [3]: 1 µM
